Patent US10836759B2, “Thiazole derivatives useful as mutant IDH1 inhibitors for treating cancer” (THE UNITED STATES OF AMERICA, AS REPRESENTED BY THE …, priority 2016, dated 2020)

Columns and labels:
IDH1 R132C = IDH1 R132C (Homo sapiens, UniProt O75874, R132C); assay: Enzymatic inhibition assay, mutant IDH1 R132C (NADPH depletion coupled to diaphorase/resazurin); assay type: biochemical; conditions: IDH1 R132C enzyme, IC50 class
Experimental: (§1) Assays were conducted in a 1536-well black solid-bottom plate with a final assay volume of 9 μL.
For IDH1 R132C, 3 μL of enzyme (0.00032 mg/mL IDH1 R132H, 10% glycerol, 50 mM potassium phosphate pH 6.5, 5 mM MgCl2, 0.03% BSA) were added to the plate, followed by the addition of 23 nL of test compound in DMSO. The plate was lidded and incubated at room temperature for 30 minutes at which time 3 μL of substrate were added (0.012 mM NADPH, 0.6 mM α-KG, 10% glycerol, 50 mM potassium phosphate pH 6.5, 5 mM MgCl2, 0.03% BSA). […]

IDH1 R132H = IDH1 R132H (Homo sapiens, UniProt O75874, R132H); assay: Enzymatic inhibition assay, mutant IDH1 R132H (NADPH depletion coupled to diaphorase/resazurin); assay type: biochemical; conditions: IDH1 R132H enzyme, IC50 class
Sequence of IDH1 R132H (O75874 whole entry R132H): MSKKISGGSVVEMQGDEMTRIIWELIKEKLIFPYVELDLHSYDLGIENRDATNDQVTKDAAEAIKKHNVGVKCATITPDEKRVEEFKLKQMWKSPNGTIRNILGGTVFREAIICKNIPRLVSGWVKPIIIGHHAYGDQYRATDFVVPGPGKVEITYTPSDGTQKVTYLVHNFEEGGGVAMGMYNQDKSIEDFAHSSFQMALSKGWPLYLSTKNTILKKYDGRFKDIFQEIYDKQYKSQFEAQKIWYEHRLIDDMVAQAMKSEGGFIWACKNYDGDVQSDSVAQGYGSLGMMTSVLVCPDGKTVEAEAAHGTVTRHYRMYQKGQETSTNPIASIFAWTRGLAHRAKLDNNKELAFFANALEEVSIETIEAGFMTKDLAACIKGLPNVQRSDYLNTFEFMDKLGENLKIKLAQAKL
Experimental: as §1
Specifically, for IDH1 R132H, 3 μL of enzyme (4 mM β-ME, 0.0005 mg/mL IDH1 R132H, 150 mM NaCl, 20 mM Tris pH 7.5, 10 mM MgCl2, 0.05% BSA) were added to the plate, followed by the addition of 23 nL of test compound in DMSO. The plate was lidded and incubated at room temperature for 30 minutes at which time 3 μL of substrate were added (0.016 mM NADPH, 2 mM α-KG, 150 mM NaCl, 20 mM Tris pH 7.5, 10 mM MgCl2, 0.05% BSA). This reaction was incubated at room-temperature for 60 minutes at which time the detection mix was added (0.06 mg/mL diaphorase, 0.036 mM resazurin, 150 mM NaCl, 20 mM Tris pH 7.5, 10 mM MgCl2, 0.05% BSA). […]

Sequence of IDH1 R132C (O75874 whole entry R132C): as the sequence (O75874 whole entry R132H) above, with H132C counted along it

SMILES | IC50 (IDH1 R132C) | IC50 (IDH1 R132H)
CCOc1ccc(Cl)cc1-n1c(C=C(C)C)c(C(=O)N2CC3CCC(C2)N3)cc(-c2nc(-c3ccc(Cl)cc3)cs2)c1=O (single isomer, unassigned) [Compound 113-1] | < 300 nM | < 300 nM
CCOc1ccc(Cl)cc1-n1c(C=C(C)C)c(C(=O)N2CC3CCC(C2)N3)cc(-c2nc(-c3ccc(Cl)cc3)cs2)c1=O (single isomer, unassigned) [Compound 113-2] | 300 to 1000 nM | 1000 to 5000 nM
CCc1ccc(OC)cc1-n1c(C=C(C)C)c(C(=O)N2C[C@H]3CC[C@@H](C2)N3)cc(-c2nc(-c3ccc(Cl)cc3)cs2)c1=O (single isomer, unassigned) [Compound 114-1] | < 300 nM | < 300 nM
CCc1ccc(OC)cc1-n1c(C=C(C)C)c(C(=O)N2C[C@H]3CC[C@@H](C2)N3)cc(-c2nc(-c3ccc(Cl)cc3)cs2)c1=O (single isomer, unassigned) [Compound 114-2] | 300 to 1000 nM | 300 to 1000 nM
CCc1ccc(Cl)cc1-n1c(C=C(C)C)c(C(=O)N2CC3CCC(C2)N3)cc(-c2nc(-c3ccc(Cl)cc3)cs2)c1=O (single isomer, unassigned) [Compound 133-1] | < 300 nM | 300 to 1000 nM
CCc1ccc(Cl)cc1-n1c(C=C(C)C)c(C(=O)N2CC3CCC(C2)N3)cc(-c2nc(-c3ccc(Cl)cc3)cs2)c1=O (single isomer, unassigned) [Compound 133-2] | 300 to 1000 nM | 1000 to 5000 nM
CCOc1ccc(Cl)c(-n2c(C=C(C)C)c(C(=O)N3CCNCC3)cc(-c3nc(-c4ccc(Cl)cc4)cs3)c2=O)c1 (single isomer, unassigned) [Compound 139-1] | < 300 nM | < 300 nM
CCOc1ccc(Cl)cc1-n1c(C=C(C)C)c(C(=O)N2CCNCC2)cc(-c2nc(-c3ccc(C#N)cc3)cs2)c1=O (single isomer, unassigned) [Compound 140-1] | < 300 nM | < 300 nM
CCOc1ccc(Cl)cc1-n1c(C=C(C)C)c(C(=O)N2CC3CCC(C2)N3)cc(-c2nc(-c3ccc(C#N)cc3)cs2)c1=O (single isomer, unassigned) [Compound 141-1] | < 300 nM | < 300 nM
CCOc1ccc(Cl)cc1-n1c(C=C(C)C)c(C(=O)N2CCNCC2)cc(-c2nc(-c3ccc(Cl)cc3)cs2)c1=O (single isomer, unassigned) [Compound 143-1] | 300 to 1000 nM | 
CCc1ccc(Cl)cc1-n1c(C=C(C)C)c(C(=O)N2CCNCC2)cc(-c2nc(-c3ccc(Cl)cc3)cs2)c1=O (single isomer, unassigned) [Compound 144-1] | < 300 nM | < 300 nM
CCc1ccc(OC)cc1-n1c(C=C(C)C)c(C(=O)N2CCNCC2)cc(-c2nc(-c3ccc(Cl)cc3)cs2)c1=O (single isomer, unassigned) [Compound 151-2] | 300 to 1000 nM | 
CCc1ccc(Cl)cc1-n1c(C=C(C)C)c(C(=O)N2CCNCC2)cc(-c2nc(-c3ccc(Cl)cc3)cs2)c1=O [Compound 101] | < 300 nM | < 300 nM
CCc1ccc(OC)cc1-n1c(C=C(C)C)c(C(=O)N2CCNCC2)cc(-c2nc(-c3ccc(C(F)(F)F)nc3)cs2)c1=O [Compound 103] | < 300 nM | < 300 nM
CCc1ccc(OC)cc1-n1c(C=C(C)C)c(C(=O)N2CCNCC2)cc(-c2nc(-c3ccc(C(F)F)cc3)cs2)c1=O [Compound 104] | < 300 nM | < 300 nM
CCOc1ccc(Cl)c(-n2c(C=C(C)C)c(C(=O)N3CCNCC3)cc(-c3nc(-c4ccc(C(F)(F)F)cc4)cs3)c2=O)c1 [Compound 105] | < 300 nM | < 300 nM
CCOc1ccc(Cl)cc1-n1c(C=C(C)C)c(C(=O)N2CCN[C@@H](C)C2)cc(-c2nc(-c3ccc(C(F)(F)F)cc3)cs2)c1=O [Compound 107] | < 300 nM | < 300 nM
CCc1cccc(CC)c1-n1c(C=C(C)C)c(C(=O)N2CCN[C@@H](C)C2)cc(-c2nc(-c3ccc(C(F)F)cc3)cs2)c1=O [Compound 108] | < 300 nM | < 300 nM
CCc1cccc(CC)c1-n1c(C=C(C)C)c(C(=O)N2CCN[C@@H](C)C2)cc(-c2nc(-c3ccc(Cl)cc3)cs2)c1=O [Compound 109] | < 300 nM | < 300 nM
CCc1cccc(CC)c1-n1c(C=C(C)C)c(C(=O)N2CCN[C@H](C)C2)cc(-c2nc(-c3ccc(Cl)cc3)cs2)c1=O [Compound 112] | < 300 nM | < 300 nM
CCOc1ccc(Cl)cc1-n1c(C=C(C)C)c(C(=O)N2CC3CCC(C2)N3)cc(-c2nc(-c3ccc(C(F)(F)F)cc3)cs2)c1=O [Compound 115] | < 300 nM | < 300 nM
CCc1ccc(Cl)cc1-n1c(CC(C)C)c(C(=O)N2CCNCC2)cc(-c2nc(-c3ccc(C(F)F)cc3)cs2)c1=O [Compound 118] | 300 to 1000 nM | 300 to 1000 nM
CCc1ccc(Cl)cc1-n1c(C=C(C)C)c(C(=O)N2CCNCC2)cc(-c2nc(-c3ccc(C(F)(F)F)nc3)cs2)c1=O [Compound 122] | 1000 to 5000 nM | 300 to 1000 nM
CCc1cccc(CC)c1-n1c(C=C(C)C)c(C(=O)N2CCNC[C@H]2C)cc(-c2nc(-c3ccc(Cl)cc3)cs2)c1=O [Compound 123] | < 300 nM | < 300 nM
CCOc1ccc(Cl)cc1-n1c(C=C(C)C)c(C(=O)N2C[C@H]3CC[C@@H](C2)N3)cc(-c2nc(-c3ccc(C(F)F)cc3)cs2)c1=O [Compound 125] | < 300 nM | < 300 nM
CCOc1ccc(Cl)c(-n2c(C=C(C)C)c(C(=O)N3C[C@H]4CC[C@@H](C3)N4)cc(-c3nc(-c4ccc(C(F)(F)F)cc4)cs3)c2=O)c1 [Compound 127] | < 300 nM | < 300 nM

The next lines start with the values.

IC50 (IDH1 R132C) | IC50 (IDH1 R132H) | SMILES
< 300 nM | < 300 nM | CCOc1ccc(Cl)c(-n2c(C=C(C)C)c(C(=O)N3CC4CCC(C3)N4)cc(-c3nc(-c4ccc(Cl)cc4)cs3)c2=O)c1 (single isomer, unassigned) [Compound 126-1]
1000 to 5000 nM | 1000 to 5000 nM | CCOc1ccc(Cl)c(-n2c(C=C(C)C)c(C(=O)N3CC4CCC(C3)N4)cc(-c3nc(-c4ccc(Cl)cc4)cs3)c2=O)c1 (single isomer, unassigned) [Compound 126-2]
1000 to 5000 nM | 300 to 1000 nM | CCOc1ccc(Cl)c(-n2c(C=C(C)C)c(C(=O)N3CCNCC3)cc(-c3nc(-c4ccc(Cl)cc4)cs3)c2=O)c1 (single isomer, unassigned) [Compound 139-2]
300 to 1000 nM | < 300 nM | CCOc1ccc(Cl)cc1-n1c(C=C(C)C)c(C(=O)N2CCNCC2)cc(-c2nc(-c3ccc(C#N)cc3)cs2)c1=O (single isomer, unassigned) [Compound 140-2]
< 300 nM | 300 to 1000 nM | CCOc1ccc(Cl)cc1-n1c(C=C(C)C)c(C(=O)N2CC3CCC(C2)N3)cc(-c2nc(-c3ccc(C#N)cc3)cs2)c1=O (single isomer, unassigned) [Compound 141-2]
300 to 1000 nM | < 300 nM | CCc1ccc(Cl)cc1-n1c(C=C(C)C)c(C(=O)N2CCNCC2)cc(-c2nc(-c3ccc(Cl)cc3)cs2)c1=O (single isomer, unassigned) [Compound 144-2]
< 300 nM | < 300 nM | CCc1ccc(OC)cc1-n1c(C=C(C)C)c(C(=O)N2CCNCC2)cc(-c2nc(-c3ccc(C(F)(F)F)cc3)cs2)c1=O [Compound 102]
< 300 nM | < 300 nM | CCOc1ccc(Cl)c(-n2c(C=C(C)C)c(C(=O)N3CCNCC3)cc(-c3nc(-c4ccc(C(F)F)cc4)cs3)c2=O)c1 [Compound 106]
< 300 nM | < 300 nM | CCOc1ccc(Cl)cc1-n1c(C=C(C)C)c(C(=O)N2CCN[C@H](C)C2)cc(-c2nc(-c3ccc(C(F)(F)F)cc3)cs2)c1=O [Compound 110]
< 300 nM | < 300 nM | CCc1cccc(CC)c1-n1c(C=C(C)C)c(C(=O)N2CCN[C@H](C)C2)cc(-c2nc(-c3ccc(C(F)F)cc3)cs2)c1=O [Compound 111]
< 300 nM | < 300 nM | CCOc1ccc(Cl)cc1-n1c(C=C(C)C)c(C(=O)N2CC3CCC(C2)N3)cc(-c2nc(-c3ccc(Cl)cc3)cs2)c1=O [Compound 113]
< 300 nM | < 300 nM | CCc1ccc(OC)cc1-n1c(C=C(C)C)c(C(=O)N2CC3CCC(C2)N3)cc(-c2nc(-c3ccc(Cl)cc3)cs2)c1=O [Compound 114]
< 300 nM | < 300 nM | CCc1cccc(CC)c1-n1c(C=C(C)C)c(C(=O)N2CC3CCC(C2)N3)cc(-c2nc(-c3ccc(C(F)F)cc3)cs2)c1=O [Compound 116]
< 300 nM | < 300 nM | CCc1cccc(CC)c1-n1c(C=C(C)C)c(C(=O)N2C[C@H]3CC[C@@H](C2)N3)cc(-c2nc(-c3ccc(C(F)F)nc3)cs2)c1=O [Compound 119]
< 300 nM | < 300 nM | CCc1cccc(CC)c1-n1c(C=C(C)C)c(C(=O)N2CCNC[C@@H]2C)cc(-c2nc(-c3ccc(Cl)cc3)cs2)c1=O [Compound 124]
< 300 nM | < 300 nM | CCOc1ccc(Cl)c(-n2c(C=C(C)C)c(C(=O)N3C[C@H]4CC[C@@H](C3)N4)cc(-c3nc(-c4ccc(Cl)cc4)cs3)c2=O)c1 [Compound 126]
